This note sets out measurements from patent US20120238767A1, “ANTIOXIDANT INFLAMMATION MODULATORS: NOVEL DERIVATIVES OF OLEANOLIC ACID” (priority 2008, published 2012).

Where only a bound is given, the exact number is not on record here.

One assay relates to RAW264.7 macrophages. The experiment in a line: Cell viability (WST-1 reagent). It counts as cell-based, mouse. As to conditions: RAW264.7, 20 ng/ml IFNγ. How it is done: (§1) FIGS. 1-11 and 22. Inhibition of NO Production. RAW264.7 macrophages were pre-treated with DMSO or drugs at various concentrations (nM) for 2 hours, then treated with 20 ng/ml IFNγ for 24 hours. NO concentration in media was determined using a Griess reagent system; cell viability was determined using WST-1 reagent. Nitric Oxide production and cell viability. RAW264.7 macrophages were pre-treated with DMSO or drugs for 2 hours, then treated with recombinant mouse IFNγ (Sigma) for 24 hours. NO concentration in media was determined using the Griess reagent system (Promega). Cell viability was determined using WST-1 reagent (Roche).

Assay [1] has as its system IFNγ-induced NO production in RAW264.7 macrophages. The experiment in a line: Suppression of IFNγ-induced NO production (Griess reagent). It counts as cell-based, mouse. As to conditions: RAW264.7, 20 ng/ml IFNγ for 24 hours, 2 hours pre-treatment. How it is done:
as §1

Consider `COC(=O)[C@]12CCC(C)(C)C[C@H]1[C@H]1C(=O)C=C3[C@@]4(C)C=C(F)C(=O)C(C)(C)[C@@H]4CC[C@@]3(C)[C@]1(C)CC2` [Compound 402-05, (4aS,6aR,6bS,8aR,12aR,14aR,14b5)-methyl-11-fluoro-2,2,6a,6b,9,9,12a-heptamethyl-10,14-dioxo-1,2,3,4,4a,5,6,6a,6b,7,8,8a,9,10,12a,14,14a,14b-octadecahydropicene-4a-carboxylate], for which the IC50 (with RAW264.7 macrophages; in assay [1]) was greater than 200 nM each time.

For the compound `COC(=O)[C@]12CCC(C)(C)C[C@H]1[C@H]1C(=O)C=C3[C@@]4(C)C=C(c5nnn[nH]5)C(=O)C(C)(C)[C@@H]4CC[C@@]3(C)[C@]1(C)CC2` [Compound 402-06, (4aS,6aR,6bS,8aR,12aS,14aR,14bS)-methyl-2,2,6a,6b,9,9,12a-heptamethyl-10,14-dioxo-11-(1H-tetrazol-5-yl)-1,2,3,4,4a,5,6,6a,6b,7,8,8a,9,10,12a,14,14a,14b-octadecahydropicene-4a-carboxylate], the IC50 (with RAW264.7 macrophages (Mus musculus); in assay [1] (Mus musculus)) was greater than 200 nM in each case.

Consider `COC(=O)[C@]12CCC(C)(C)C[C@H]1[C@H]1C(=O)C=C3[C@@]4(C)C=C(C(=O)NO)C(=O)C(C)(C)[C@@H]4CC[C@@]3(C)[C@]1(C)CC2` [Compound 402-07, (4aS,6aR,6bS,8aR,12aS,14aR,14b5)-methyl-11-(hydroxycarbamoyl)-2,2,6a,6b,9,9,12a-heptamethyl-10,14-dioxo-1,2,3,4,4a,5,6,6a,6b,7,8,8a,9,10,12a,14,14a,14b-octadecahydropicene-4a-carboxylate], for which the 50% inhibitory concentration (IC50) (in the assay with RAW264.7 macrophages (Mus musculus); in assay [1] (Mus musculus)) was greater than 200 nM in each case.

For the compound `COC(=O)[C@]12CCC(C)(C)C[C@H]1[C@H]1C(=O)C=C3[C@@]4(C)C=C(C(=O)NS(C)(=O)=O)C(=O)C(C)(C)[C@@H]4CC[C@@]3(C)[C@]1(C)CC2` [Compound 402-08, (4aS,6aR,6bS,8aR,12aS,14aR,14bS)-methyl-2,2,6a,6b,9,9,12a-heptamethyl-11-(methylsulfonylcarbamoyl)-10,14-dioxo-1,2,3,4,4a,5,6,6a,6b,7,8,8a,9,10,12a,14,14a,14b-octadecahydropicene-4a-carboxylate], the figures for the IC50 (in the assay with RAW264.7 macrophages (Mus musculus); in assay [1] (Mus musculus)) were greater than 200 nM and 62 nM, respectively.

Turning to `CC1(C)CC[C@]2(C(=O)NO)CC[C@]3(C)[C@H](C(=O)C=C4[C@@]5(C)C=C(C#N)C(=O)C(C)(C)[C@@H]5CC[C@]43C)[C@@H]2C1` [Compound 402-09, (4aS,6aR,6bS,8aR,12aS,14aR,14bS)-11-cyano-N-hydroxy-2,2,6a,6b,9,9,12a-heptamethyl-10,14-dioxo-1,2,3,4,4a,5,6,6a,6b,7,8,8a,9,10,12a,14,14a,14b-octadecahydropicene-4a-carboxamide], the 50% inhibitory concentration (IC50) in the assay with RAW264.7 macrophages (Mus musculus) was greater than 200 nM; in assay [1] (Mus musculus), 4.2 nM.

As to `CONC(=O)[C@]12CCC(C)(C)C[C@H]1[C@H]1C(=O)C=C3[C@@]4(C)C=C(C#N)C(=O)C(C)(C)[C@@H]4CC[C@@]3(C)[C@]1(C)CC2` [Compound 402-10, (4aS,6aR,6bS,8aR,12aS,14aR,14bS)-11-cyano-N-methoxy-2,2,6a,6b,9,9,12a-heptamethyl-10,14-dioxo-1,2,3,4,4a,5,6,6a,6b,7,8,8a,9,10,12a,14,14a,14b-octadecahydropicene-4a-carboxamide], the IC50 was greater than 200 nM with RAW264.7 macrophages (Mus musculus) and 2.3 nM in assay [1] (Mus musculus).

With `CC1(C)CC[C@]2(C(=O)N=[N+]=[N-])CC[C@]3(C)[C@H](C(=O)C=C4[C@@]5(C)C=C(C#N)C(=O)C(C)(C)[C@@H]5CC[C@]43C)[C@@H]2C1` [Compound 402-11, (4aS,6aR,6bS,8aR,12aS,14aR,14bS)-11-cyano-2,2,6a,6b,9,9,12a-heptamethyl-10,14-dioxo-1,2,3,4,4a,5,6,6a,6b,7,8,8a,9,10,12a,14,14a,14b-octadecahydropicene-4a-carbonyl azide], the values for the IC50 (in the assay with RAW264.7 macrophages (Mus musculus); in assay [1] (Mus musculus)) were 150 nM and 2.5 nM, respectively.

On to `COC(=O)[C@]12CCC(C)(C)C[C@H]1[C@H]1C(=O)C=C3[C@@]4(C)C(C)=C(C#N)C(=O)C(C)(C)[C@@H]4CC[C@@]3(C)[C@]1(C)CC2` [Compound 402-22, (4 aS,6aR,6bS,8aR,12 aR,14 aR,14bS)-methyl-11-cyano-2,2,6a,6b,9,9,12,12a-octamethyl-10,14-dioxo-1,2,3,4,4a,5,6,6a,6b,7,8,8a,9,10,12a,14,14a,14b-octadecahydropicene-4a-carboxylate], for which the IC50 (in the assay with RAW264.7 macrophages (Mus musculus); in assay [1] (Mus musculus)) was greater than 200 nM in each case.

Take `CC1(C)CC[C@]2(C(=O)NCCO)CC[C@]3(C)[C@H](C(=O)C=C4[C@@]5(C)C=C(C#N)C(=O)C(C)(C)[C@@H]5CC[C@]43C)[C@@H]2C1` [Compound 402-40, (4aS,6aR,6bS,8aR,12aS,14aR,14bS)-11-cyano-N-(2-hydroxyethyl)-2,2,6a,6b,9,9,12a-heptamethyl-10,14-dioxo-1,2,3,4,4a,5,6,6a,6b,7,8,8a,9,10,12a,14,14a,14b-octadecahydropicene-4a-carboxamide]: the IC50 in the assay on RAW264.7 macrophages (Mus musculus) came to 75 nM; in assay [1] (Mus musculus), 17 nM.

Take `COC(=O)[C@]12CCC(C)(C)C[C@H]1[C@H]1C(=O)C=C3[C@@]4(C)CC(C#N)=C(OC(C)=O)C(C)(C)[C@@H]4CC[C@@]3(C)[C@]1(C)CC2` [Compound 402-47, (4aS,6aR,6bS,8aR,12aS,14aR,14bS)-methyl-10-acetoxy-11-cyano-2,2,6a,6b,9,9,12a-heptamethyl-14-oxo-1,2,3,4,4a,5,6,6a,6b,7,8,8a,9,12,12a,14,14a,14b-octadecahydropicene-4a-carboxylate]: the half-maximal inhibitory concentration (IC50) (in the assay with RAW264.7 macrophages (Mus musculus); in assay [1] (Mus musculus)) was greater than 200 nM each time.

On to `CC1(C)CC[C@]2(C(=O)F)CC[C@]3(C)[C@H](C(=O)C=C4[C@@]5(C)C=C(C#N)C(=O)C(C)(C)[C@@H]5CC[C@]43C)[C@@H]2C1` [Compound 402-55, (4aS,6aR,6bS,8aR,12aS,14aR,14bS)-11-cyano-2,2,6a,6b,9,9,12a-heptamethyl-10,14-dioxo-1,2,3,4,4a,5,6,6a,6b,7,8,8a,9,10,12a,14,14a,14b-octadecahydropicene-4a-carbonyl fluoride], for which the IC50 is 100 nM in the assay with RAW264.7 macrophages (Mus musculus) and roughly 3 nM in assay [1] (Mus musculus).

For `COC(=O)[C@]12CCC(C)(C)C[C@H]1[C@H]1C(=O)C=C3[C@@]4(C)C=C(C#N)C(=O)[C@](C)(CO)[C@@H]4CC[C@@]3(C)[C@]1(C)CC2` [Compound 63301, (4aS,6aR,6bS,8aR,9S,12aS,14aR,14b5)-methyl 11-cyano-9-(hydroxymethyl)-2,2,6a,6b,9,12a-hexamethyl-10,14-dioxo-1,2,3,4,4a,5,6,6a,6b,7,8,8a,9,10,12a,14,14a,14b-octadecahydropicene-4a-carboxylate], the half-maximal inhibitory concentration (IC50) with RAW264.7 macrophages (Mus musculus) was roughly 120 nM; in assay [1] (Mus musculus) it was roughly 3.2 nM.

As for `COC(=O)[C@]12CCC(C)(C)C[C@H]1[C@H]1C(=O)C=C3[C@@]4(C)C=C(C(F)(F)F)C(=O)C(C)(C)[C@@H]4CC[C@@]3(C)[C@]1(C)CC2` [Compound 63320, (4aS,6aR,6bS,8aR,12aS,14aR,14bS)-methyl 2,2,6a,6b,9,9,12a-heptamethyl-10,14-dioxo-11-(trifluoromethyl)-1,2,3,4,4a,5,6,6a,6b,7,8,8a,9,10,12a,14,14a,14b-octadecahydropicene-4a-carboxylate], the IC50 in assay [1] (Mus musculus) is roughly 12 nM.
